According to PubChem BioAssay AID1963848 (Molecular Pharmacology Branch, DTP, NCI, 2024):
pIC50: −log10 of the molar value.

System: 379773-124-R-J2-PDC spheroid viability
Assay: Anticancer human tumor 379773-124-R-J2-PDC patient-derived endometrial carcinoma cell line growth inhibition [POLQ]
Conditions: spheroids with HUVEC and MSC; for pIC50: curve of first compound; for viability, T/C: stronger effect = lower value
Procedure, shortened: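 Complex spheroid viability model combining PDC tumour cells with endothelial (HUVEC) and MSC stromal cells. Novobiocin, ART-558 or RP6685 were tested singly and in combination with standard and investigational anticancer drugs. Each was titrated in half-log steps from near clinical Cmax, or from 10 microM where Cmax was unknown.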

[1] = second compound 0.0316 µM, first compound 0.0316 µM
[2] = second compound 0.0316 µM, first compound 0.1 µM
[3] = second compound 0.0316 µM, first compound 0.316 µM
[4] = second compound 0.0316 µM, first compound 1 µM
[5] = second compound 0.0316 µM, first compound 3.16 µM
[6] = second compound 0.0316 µM, first compound 10 µM
[7] = second compound 0.1 µM, first compound 0.0316 µM
[8] = second compound 0.1 µM, first compound 0.1 µM
[9] = second compound 0.1 µM, first compound 0.316 µM
[10] = second compound 0.1 µM, first compound 1 µM
[11] = second compound 0.1 µM, first compound 3.16 µM
[12] = second compound 0.1 µM, first compound 10 µM
[13] = second compound 0.316 µM, first compound 0.0316 µM
[14] = second compound 0.316 µM, first compound 0.1 µM
[15] = second compound 0.316 µM, first compound 0.316 µM
[16] = second compound 0.316 µM, first compound 1 µM
[17] = second compound 0.316 µM, first compound 3.16 µM
[18] = second compound 0.316 µM, first compound 10 µM
[19] = second compound 1 µM, first compound 0.0316 µM
[20] = second compound 1 µM, first compound 0.1 µM
[21] = second compound 1 µM, first compound 0.316 µM
[22] = second compound 1 µM, first compound 1 µM
[23] = second compound 1 µM, first compound 3.16 µM
[24] = second compound 1 µM, first compound 10 µM
[25] = second compound 3.16 µM, first compound 0.0316 µM
[26] = second compound 3.16 µM, first compound 0.1 µM
[27] = second compound 3.16 µM, first compound 0.316 µM
[28] = second compound 3.16 µM, first compound 1 µM
[29] = second compound 3.16 µM, first compound 3.16 µM
[30] = second compound 3.16 µM, first compound 10 µM
[31] = second compound 10 µM, first compound 0.0316 µM
[32] = second compound 10 µM, first compound 0.1 µM
[33] = second compound 10 µM, first compound 0.316 µM
[34] = second compound 10 µM, first compound 1 µM
[35] = second compound 10 µM, first compound 3.16 µM
[36] = second compound 10 µM, first compound 10 µM
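Note: spheroids exposed to drugs for seven days before readout.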
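Throughout, for viability, T/C: percent viability relative to DMSO vehicle control taken as 100%.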

## CCc1cc2c(N3CCc4c(cc(Cn5ccnc5)cc4-c4cn(C)nc4C(F)(F)F)C3=O)cc(C)nc2c(OC)n1 + COC1C(OC(N)=O)C(O)C(Oc2ccc3c(O)c(NC(=O)c4ccc(O)c(CC=C(C)C)c4)c(=O)oc3c2C)OC1(C)C
Second compound 0.0316 µM
  pIC50: 5.91
Second compound 0.1 µM
  pIC50: 5.67
Second compound 0.316 µM
  pIC50: 5.48
Second compound 1 µM
  pIC50: 5.82
Second compound 3.16 µM
  pIC50: 5.68
Second compound 10 µM
  pIC50: 5.50
[1]
  viability, T/C: 68.2%
[2]
  viability, T/C: 63.2%
[3]
  viability, T/C: 53.7%
[4]
  viability, T/C: 53%
[5]
  viability, T/C: 45.5%
[6]
  viability, T/C: 48.5%
[7]
  viability, T/C: 62.2%
[8]
  viability, T/C: 62.3%
[9]
  viability, T/C: 58.1%
[10]
  viability, T/C: 51.3%
[11]
  viability, T/C: 49.4%
[12]
  viability, T/C: 41.7%
[13]
  viability, T/C: 68.5%
[14]
  viability, T/C: 63.6%
[15]
  viability, T/C: 63.8%
[16]
  viability, T/C: 52.6%
[17]
  viability, T/C: 49.2%
[18]
  viability, T/C: 46.3%
[19]
  viability, T/C: 66.4%
[20]
  viability, T/C: 69.4%
[21]
  viability, T/C: 58.1%
[22]
  viability, T/C: 54.6%
[23]
  viability, T/C: 43.8%
[24]
  viability, T/C: 37.8%
[25]
  viability, T/C: 68.4%
[26]
  viability, T/C: 59.6%
[27]
  viability, T/C: 50.1%
[28]
  viability, T/C: 55.8%
[29]
  viability, T/C: 50%
[30]
  viability, T/C: 46.5%
[31]
  viability, T/C: 77%
[32]
  viability, T/C: 58.7%
[33]
  viability, T/C: 61.5%
[34]
  viability, T/C: 55.7%
[35]
  viability, T/C: 54.9%
[36]
  viability, T/C: 42.2%

## CC1COCCN1c1cc(-c2ccnn2C)c2ccnc(-c3ccn[nH]3)c2n1 (stereo not drawn) + Nc1ccc(C#CCN(C(=O)Cc2ncc(C(F)(F)F)cc2C(F)(F)F)c2ccc(F)cc2)nn1
Second compound 0.0316 µM
  pIC50: 6.92
Second compound 0.1 µM
  pIC50: 6.88
Second compound 0.316 µM
  pIC50: 6.94
Second compound 1 µM
  pIC50: 6.89
Second compound 3.16 µM
  pIC50: 6.87
Second compound 10 µM
  pIC50: 6.85
[1]
  viability, T/C: 89.5%
[2]
  viability, T/C: 56.8%
[3]
  viability, T/C: 13.7%
[4]
  viability, T/C: 11.4%
[5]
  viability, T/C: 12%
[6]
  viability, T/C: 6.24%
[7]
  viability, T/C: 89.5%
[8]
  viability, T/C: 61.2%
[9]
  viability, T/C: 15.6%
[10]
  viability, T/C: 11.1%
[11]
  viability, T/C: 12.2%
[12]
  viability, T/C: 8.99%
[13]
  viability, T/C: 90.6%
[14]
  viability, T/C: 54.3%
[15]
  viability, T/C: 16.2%
[16]
  viability, T/C: 11.5%
[17]
  viability, T/C: 12.7%
[18]
  viability, T/C: 7.88%
[19]
  viability, T/C: 93.2%
[20]
  viability, T/C: 60.6%
[21]
  viability, T/C: 13.9%
[22]
  viability, T/C: 9.22%
[23]
  viability, T/C: 12.6%
[24]
  viability, T/C: 9.58%
[25]
  viability, T/C: 91.4%
[26]
  viability, T/C: 62.9%
[27]
  viability, T/C: 13%
[28]
  viability, T/C: 10.6%
[29]
  viability, T/C: 10.9%
[30]
  viability, T/C: 7.43%
[31]
  viability, T/C: 80.1%
[32]
  viability, T/C: 64.2%
[33]
  viability, T/C: 17.7%
[34]
  viability, T/C: 8.24%
[35]
  viability, T/C: 12.3%
[36]
  viability, T/C: 8.65%

## O=C(c1cc(Cc2n[nH]c(=O)c3ccccc23)ccc1F)N1CCN(C(=O)C2CC2)CC1 + Cc1cccc(N(C)C(=O)C2C(O)CCN2c2nc(C)cc(C(F)(F)F)c2C#N)c1
Second compound 0.0316 µM
  pIC50: 5.20
Second compound 0.1 µM
  pIC50: 5.12
Second compound 0.316 µM
  pIC50: 5.09
Second compound 1 µM
  pIC50: 5.09
Second compound 3.16 µM
  pIC50: 5.17
Second compound 10 µM
  pIC50: 5.21
[1]
  viability, T/C: 79.5%
[2]
  viability, T/C: 89.5%
[3]
  viability, T/C: 83.8%
[4]
  viability, T/C: 80.9%
[5]
  viability, T/C: 76.8%
[6]
  viability, T/C: 32.7%
[7]
  viability, T/C: 89.2%
[8]
  viability, T/C: 89.6%
[9]
  viability, T/C: 75.7%
[10]
  viability, T/C: 75.8%
[11]
  viability, T/C: 74.1%
[12]
  viability, T/C: 42.5%
[13]
  viability, T/C: 90.2%
[14]
  viability, T/C: 80.2%
[15]
  viability, T/C: 82.8%
[16]
  viability, T/C: 85.3%
[17]
  viability, T/C: 71.7%
[18]
  viability, T/C: 45.1%
[19]
  viability, T/C: 88.3%
[20]
  viability, T/C: 87.9%
[21]
  viability, T/C: 77.7%
[22]
  viability, T/C: 83.5%
[23]
  viability, T/C: 95.4%
[24]
  viability, T/C: 42.2%
[25]
  viability, T/C: 73.5%
[26]
  viability, T/C: 78.4%
[27]
  viability, T/C: 81.5%
[28]
  viability, T/C: 76.7%
[29]
  viability, T/C: 97.2%
[30]
  viability, T/C: 33.4%
[31]
  viability, T/C: 78.2%
[32]
  viability, T/C: 78.9%
[33]
  viability, T/C: 85.5%
[34]
  viability, T/C: 72.4%
[35]
  viability, T/C: 73.4%
[36]
  viability, T/C: 33.7%

## C=CCn1c(=O)c2cnc(Nc3ccc(N4CCN(C)CC4)cc3)nc2n1-c1cccc(C(C)(C)O)n1 + Cc1cccc(N(C)C(=O)C2C(O)CCN2c2nc(C)cc(C(F)(F)F)c2C#N)c1
Second compound 0.0316 µM
  pIC50: 6.34
Second compound 0.1 µM
  pIC50: 6.36
Second compound 0.316 µM
  pIC50: 6.39
Second compound 1 µM
  pIC50: 6.38
Second compound 3.16 µM
  pIC50: 6.35
Second compound 10 µM
  pIC50: 6.39
Second compound 0.0316 µM, first compound 0.00316 µM
  viability, T/C: 88.5%
Second compound 0.0316 µM, first compound 0.01 µM
  viability, T/C: 86%
[1]
  viability, T/C: 85.2%
[2]
  viability, T/C: 98%
[3]
  viability, T/C: 72.2%
[4]
  viability, T/C: 3.05%
Second compound 0.1 µM, first compound 0.00316 µM
  viability, T/C: 91.4%
Second compound 0.1 µM, first compound 0.01 µM
  viability, T/C: 98.3%
[7]
  viability, T/C: 93.1%
[8]
  viability, T/C: 98.1%
[9]
  viability, T/C: 68.8%
[10]
  viability, T/C: 3.55%
Second compound 0.316 µM, first compound 0.00316 µM
  viability, T/C: 100%
Second compound 0.316 µM, first compound 0.01 µM
  viability, T/C: 91.5%
[13]
  viability, T/C: 96.4%
[14]
  viability, T/C: 90.8%
[15]
  viability, T/C: 63.6%
[16]
  viability, T/C: 4%
Second compound 1 µM, first compound 0.00316 µM
  viability, T/C: 86.5%
Second compound 1 µM, first compound 0.01 µM
  viability, T/C: 96.7%
[19]
  viability, T/C: 95.1%
[20]
  viability, T/C: 95.3%
[21]
  viability, T/C: 64.9%
[22]
  viability, T/C: 2.86%
Second compound 3.16 µM, first compound 0.00316 µM
  viability, T/C: 98.2%
Second compound 3.16 µM, first compound 0.01 µM
  viability, T/C: 90.2%
[25]
  viability, T/C: 88.2%
[26]
  viability, T/C: 94%
[27]
  viability, T/C: 69.5%
[28]
  viability, T/C: 2.86%
Second compound 10 µM, first compound 0.00316 µM
  viability, T/C: 87.5%
Second compound 10 µM, first compound 0.01 µM
  viability, T/C: 86.1%
[31]
  viability, T/C: 85.9%
[32]
  viability, T/C: 89.5%
[33]
  viability, T/C: 63%
[34]
  viability, T/C: 3.05%
